Marks after values point to notes of the source that are not given here.
Legend:
SK1 in 4T1 cells = molecular target: T1, SK1 in 4T1 cells (Mus musculus, UniProt Q8CI15); assay: SK1 activity in 4T1 cells in vitro (Figure S10); assay type: cell-based, murine
T1 construct: endogenous in cells; host or cells: 4T1

[1] = test system: 4T1 breast cancer allografts; assay: 4T1 breast cancer allograft, tumour volume; assay type: in vivo, BALB/c nude mice; conditions: 5 mg/kg each drug i.p. twice a week for 2 weeks; control 468 mm^3
Description: Breast cancer allografts were established in 6–8-week-old BALB/c nude mice by injection of 10^6 4T1 cells into their mammary pad. Two weeks after implantation, mice were randomised into treatment groups (n = 6/group) and treated twice a week for 2 weeks with intraperitoneal injections of dimethyl sulfoxide (DMSO), 5 mg/kg DTX, 5 mg/kg SK-F, 5 mg/kg DTX + 5 mg/kg SK-F. One day after the last treatment, all mice were euthanized and blood was collected. Tumour long and short radii were measured using calipers and tumour volume (v) was calculated using the formula v = 4/3 πab^2 (a – long radius, b – short radius). Mice and individual organs were weighed and primary tumours were then processed for analysis of SK1 activity as described above. Full blood count and liver function test analysis was done in the Hammersmith hospital biochemical lab. […]
(§1) Fig. 5 Effect of compound SK-F on breast tumour growth and SK1 activity. […] Two weeks after implantation, mice were randomised into treatment groups (n = 6/group) and treated twice a week for 2 weeks with intraperitoneal injections of: DMSO, 5 mg/kg DTX, 5 mg/kg SK-F, 5 mg/kg DTX + 5 mg/kg SK-F. a Tumour volume in the different treatment groups of 4T1 breast cancer implanted in mouse mammary fat pad. b SK1 activity in tumours was measured using radiolabelling. […]

[2] = Whole-body toxicity: body and organ weights, full blood count; assay type: in vivo, BALB/c nude mice; conditions: 5 mg/kg each drug i.p. twice a week for 2 weeks, 4T1 tumour-bearing mice
Description: (§2) Breast cancer allografts were established in 6–8-week-old BALB/c nude mice by injection of 10^6 4T1 cells into their mammary pad. Two weeks after implantation, mice were randomised into treatment groups (n = 6/group) and treated twice a week for 2 weeks with intraperitoneal injections of dimethyl sulfoxide (DMSO), 5 mg/kg DTX, 5 mg/kg SK-F, 5 mg/kg DTX + 5 mg/kg SK-F. One day after the last treatment, all mice were euthanized and blood was collected. Tumour long and short radii were measured using calipers and tumour volume (v) was calculated using the formula v = 4/3 πab^2 (a – long radius, b – short radius). Mice and individual organs were weighed and primary tumours were then processed for analysis of SK1 activity as described above. Full blood count and liver function test analysis was done in the Hammersmith hospital biochemical lab.
Tumour-bearing mice were divided into four groups (n = 6) and injected with: DMSO, 5 mg/kg DTX, 5 mg/kg SK-F, 5 mg/kg DTX + 5 mg/kg SK-F. Two weeks after the tumour cells inoculation, we began intraperitoneal injections of drug preparations and continued these twice a week for two weeks. Based on our previous studies, we have chosen relatively smaller doses of SK-F and DTX in order to investigate their combined effect and potential chemosensitisation of breast tumours to taxane therapies. In the control group, tumours grew progressively and rapidly (Fig. 5a). […] Five mg/kg DTX has induced a significant reduction in tumour volume to 281 mm^3. The biggest reduction in tumour volume to 159 mm^3 was observed when DTX was combined with SK-F (Fig. 5a). […] We have further investigated the effects of the used treatments on mouse whole-body toxicity. DTX has reduced body and liver weight, while SK-F had no significant effect (Table 1). DTX has induced significant anaemia and leukopenia, while the effects of SK-F were very moderate. In all cases, the effects of combined therapy were similar to DTX alone (Table 1). Liver function test was performed as a surrogate marker for chemotherapy-induced liver damage (Fig. 6). […] The combination therapy had similar toxicity profile to DTX alone, while exerting higher antitumour efficacy (Fig. 5a).

tumour SK1 = molecular target: T2, tumour SK1 (Mus musculus, UniProt Q8CI15); assay: SK1 activity in 4T1 allograft tumours; assay type: in vivo, BALB/c nude mice; conditions: 5 mg/kg each drug i.p. twice a week for 2 weeks
T2 construct: primary tumours were then processed for analysis of SK1 activity as described above; from tissue; host or cells: 4T1 breast tumour allografts from BALB/c nude mice
T2 sequence (Q8CI15 whole entry): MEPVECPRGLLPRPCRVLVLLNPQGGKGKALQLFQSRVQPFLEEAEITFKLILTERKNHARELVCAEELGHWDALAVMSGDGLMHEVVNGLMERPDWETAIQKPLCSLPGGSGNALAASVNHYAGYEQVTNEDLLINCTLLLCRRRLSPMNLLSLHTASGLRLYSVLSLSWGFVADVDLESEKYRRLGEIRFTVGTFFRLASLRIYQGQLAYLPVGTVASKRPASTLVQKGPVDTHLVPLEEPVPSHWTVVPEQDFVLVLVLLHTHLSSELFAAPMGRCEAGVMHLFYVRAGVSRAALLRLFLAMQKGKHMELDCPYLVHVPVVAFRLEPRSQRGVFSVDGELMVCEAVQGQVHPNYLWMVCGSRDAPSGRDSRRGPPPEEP
Description: as §2, §1

[3] = molecular target: T3, endogenous SK1 in MDA-MB-231 cells (Homo sapiens, UniProt Q9NYA1); assay: SK1 activity in lysates of treated MDA-MB-231 cells; assay type: cell-based; conditions: 6 h
T3 construct: We treated MDA-MB-231 cells with 1 µM of compounds SK-A – SK-F and SKI-II as the positive control for 6 h; endogenous in cells; host or cells: MDA-MB-231
T3 sequence (Q9NYA1 whole entry): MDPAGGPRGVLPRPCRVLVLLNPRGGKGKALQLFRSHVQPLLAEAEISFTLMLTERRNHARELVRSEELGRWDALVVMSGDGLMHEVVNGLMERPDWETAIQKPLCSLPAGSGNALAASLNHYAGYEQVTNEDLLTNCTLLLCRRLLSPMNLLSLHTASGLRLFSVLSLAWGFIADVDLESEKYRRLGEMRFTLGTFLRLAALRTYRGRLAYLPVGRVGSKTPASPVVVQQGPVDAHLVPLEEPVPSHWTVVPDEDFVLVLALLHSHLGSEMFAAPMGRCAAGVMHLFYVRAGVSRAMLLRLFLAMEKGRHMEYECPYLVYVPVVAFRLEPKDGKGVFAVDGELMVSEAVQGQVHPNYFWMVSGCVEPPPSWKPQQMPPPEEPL
Description: After incubation, cells were washed with ice-cold phosphate-buffered saline (PBS) and harvested.
SK assay was performed using radiolabeling as previously described, in conditions favouring SK1 or SK2 activity as required.
Fig. 2 Inhibition of sphingosine kinase 1 in cell-free extract and in vitro. a 1 µM of compounds SK-A to SK-F and SKI-II (commercial inhibitor of SK used as a positive control) were incubated in the presence of recombinant SK1 extract (in excess), 1 µM of ATP, and 1 µM exogenous sphingosine for 1 h. b MDA-MB-231 cells were incubated with 1 µM of compounds SK-A to SK-F and SKI-II for 6 h. SK1 activity was measured as described in materials and methods. Columns, means of three independent experiments normalised to vehicle; bars, SEM. (ns, non-significant; *p < 0.05; **p < 0.01)
Reportedly, among human tumour cell lines, the breast cancer cell line MDA-MB-231 expresses high levels of SK activity. We treated MDA-MB-231 cells with 1 µM of compounds SK-A – SK-F and SKI-II as the positive control for 6 h and analysed SK1 activity in the cell lysates using SK1 activity assay.

MDA-MB-231 cells = assay: MTT cell viability / proliferation assay; assay type: cell-based, human; conditions: for IC50: Homo sapiens
Description: Cellular viability was measured using the 3-(4,5-dimethylthiazol-2-yl)-2,5-diphenyltetrazolium bromide (MTT; 5 mg/ml) colorimetric assay as already described.
Fig. 4 Effect of compounds SK-A to SK-F on breast cancer cell viability. MDA-MB-231 cells were incubated with 1, 2, 5 and 10 µM of compounds SK-A to SK-F for up to 120 h. Cell proliferation was measured using MTT assay. Columns, means of three independent experiments normalised to control; bars, SEM. (*p < 0.05; **p < 0.01; ^§p < 0.001). IC50 levels for SK-F for 72, 96 and 120 h were 7, 4.5 and 3 µM, respectively

T1 sequence (Q8CI15 whole entry): as the sequence (Q8CI15 whole entry) above

## CCCCCCCCc1ccc(NC(=O)c2ccccc2)cc1 [SK-F]
SK1 in 4T1 cells
  SK1 activity in 4T1 cells: significant inhibition
[1]
  tumour volume at the end of the study: 371 mm^3
[2]
  Hb: 90 ± 8^a % of control ± SEM
  WCC: 78 ± 7 % of control ± SEM
  Weight of Body: 91 ± 6^ns % of control ± SEM
  Weight of Kidney: 118.2 ± 3.6 % of control ± SEM
  Weight of Liver: 106.7 ± 5.5^a % of control ± SEM
  Weight of Lungs: 117.7 ± 5.6 % of control ± SEM
  Weight of Spleen: 111.2 ± 13.4^a % of control ± SEM
Tumour SK1
  tumour SK1 activity: significantly reduced
[3]; 1 µM
  SK1 activity in cells versus vehicle: significantly decreased
[3]; read-out: inhibition of SK1 activity in vitro
  inhibition at 1 µM: 48.2%
MDA-MB-231 cells; 1, 2, 5 and 10 µM, up to 120 h
  effect on MDA-MB-231 cancer cell proliferation: highest effect
MDA-MB-231 cells; MDA-MB-231, 72 h
  IC50: 7 µM
MDA-MB-231 cells; MDA-MB-231, 96 h
  IC50: 4.5 µM
MDA-MB-231 cells; MDA-MB-231, 120 h
  IC50: 3 µM

Source: publication PMC6208908, “Field template-based design and biological evaluation of new sphingosine kinase 1 inhibitors” (Breast Cancer Research and Treatment, 2018)
